From patent US4642341A, “Carbapenem antibiotics” (priority 1985, dated 1987)
Values after ≈ are worked out from the molar mass of the structure shown. Where two headings read alike, the source gives them in different places.

Columns and labels:
E. coli A20341-1 = assay: Minimum Inhibitory Concentration, tube dilution; type: cell-based; conditions: Escherichia coli, A203411, overnight 37° C.; table 6
K. pneumoniae A-9664 = assay: Minimum Inhibitory Concentration, tube dilution; type: cell-based; conditions: Klebsiella pneumoniae, A9664, overnight 37° C.; table 6
P. vulgaris A21559 = assay: Minimum Inhibitory Concentration, tube dilution; type: cell-based; conditions: Proteus vulgaris, A21559, overnight 37° C.; table 6
S. marcescens A20019 = assay: Minimum Inhibitory Concentration, tube dilution; type: cell-based; conditions: Serratia marcescens, A20019, overnight 37° C.; table 6
P. aeruginosa A21213 = assay: Minimum Inhibitory Concentration, tube dilution; type: cell-based; conditions: Pseudomonas aeruginosa, A21213, overnight 37° C.; table 6; read-out: MIC
B. fragilis A22862 = assay: Minimum Inhibitory Concentration, tube dilution; type: cell-based; conditions: Bacteroides fragilis, overnight 37° C., table 6
B. fragilis A22696 = assay: Minimum Inhibitory Concentration, tube dilution; type: cell-based; conditions: Bacteroides fragilis, overnight 37° C., table 6, read-out: MIC
P. aeruginosa A9843A [1] = assay: animal or person; type: in vivo, mice; conditions: Pseudomonas aeruginosa, in Mus musculus, im, read-out: PD50 /treatment
Excerpt: The PD50 (dose in mg/kg required to give protection to 50% of the infected mice) is indicated.

E. coli A15119 = assay: Minimum Inhibitory Concentration, tube dilution; type: cell-based; conditions: Escherichia coli, A15119, overnight 37° C.; table 6
E. cloacae A-9656 = assay: Minimum Inhibitory Concentration, tube dilution; type: cell-based; conditions: Enterobacter cloacae, A9656; overnight 37° C.; table 6
S. pneumoniae A-9585 = assay: Minimum Inhibitory Concentration, tube dilution; type: cell-based; conditions: Streptococcus pneumoniae, A9585, overnight 37° C.; table 6
S. pyogenes A-9604 = assay: Minimum Inhibitory Concentration, tube dilution; type: cell-based; conditions: Streptococcus pyogenes, A9604, overnight 37° C.; table 6
S. aureus A-9537 = assay: Minimum Inhibitory Concentration, tube dilution; type: cell-based; conditions: table 6
[2] = tested on: S. aureus A15097 (Meth-res.); assay: Minimum Inhibitory Concentration, tube dilution; type: cell-based; conditions: Staphylococcus aureus, table 6
S. faecalis A20688 = assay: Minimum Inhibitory Concentration, tube dilution; type: cell-based; conditions: Enterococcus faecalis, A20688, overnight 37° C.; table 6; read-out: MIC
K. pneumoniae A20468 = assay: Minimum Inhibitory Concentration, tube dilution; type: cell-based; conditions: Klebsiella pneumoniae, A20468, overnight 37° C.; table 6; read-out: MIC
P. mirabilis A-9900 = assay: Minimum Inhibitory Concentration, tube dilution; type: cell-based; conditions: Proteus mirabilis, A9900, overnight 37° C.; table 6
P. rettgeri A22424 = assay: Minimum Inhibitory Concentration, tube dilution; type: cell-based; conditions: Providencia rettgeri, overnight 37° C., table 6, read-out: MIC
P. aeruginosa A-9843A = assay: Minimum Inhibitory Concentration, tube dilution; type: cell-based; conditions: Pseudomonas aeruginosa, A9843A, overnight 37° C.; table 6; read-out: MIC
E. cloacae A9659 = assay: Minimum Inhibitory Concentration, tube dilution; type: cell-based; conditions: Enterobacter cloacae, A9659, overnight 37° C.; table 6; read-out: MIC
[3] = tested on: S. aureus A-9606 (Pen-res.); assay: Minimum Inhibitory Concentration, tube dilution; type: cell-based; conditions: Staphylococcus aureus, Pen-res; table 6
H. influenzae A-9833 = assay: Minimum Inhibitory Concentration, tube dilution; type: cell-based; conditions: Haemophilus influenzae, A9833; overnight 37° C.; table 6; read-out: MIC
H. influenzae A21518 = assay: Minimum Inhibitory Concentration, tube dilution; type: cell-based; conditions: Haemophilus influenzae, overnight 37° C., table 6
M. morganii A15153 = assay: Minimum Inhibitory Concentration, tube dilution; type: cell-based; conditions: Morganella morganii, A15153, overnight 37° C.; table 6
P. mirabilis A9900 = assay: Protective effect, intramuscular treatment of infected mice (table 7); type: in vivo; conditions: Proteus mirabilis, A9900, im; i.m. 1 and 3.5 hours post-infection; ~1×10^7 organisms i.p.; read-out: PD50 /treatment
Experimental: (§1) Drugs were administered i.m. 0 to 2 hours post-infection (A9606) or 1 and 3.5 hours post-infection for the others.

S. aureus A9606 = assay: as above; type: in vivo; conditions: Staphylococcus aureus, A9606, im; i.m. 0 to 2 hours post-infection; ~1×10^9 organisms i.p.; read-out: PD50 /treatment
Experimental: as §1

P. aeruginosa A9843A [4] = assay: animal or person; type: in vivo, mice; conditions: Pseudomonas aeruginosa, in Mus musculus, im, 3.5 h, read-out: PD50 /treatment
Experimental: as §1

[5] = Pharmacokinetic parameters in the mouse after intramuscular dose; type: in vivo, mice; conditions: im, 20 mg/kg
Excerpt: Also shown is the urinary recovery in the mice.
Compounds were solubilized in 0.1 M phosphate buffer pH 7.

[6] = Half-life in phosphate buffer pH 7.4; type: physicochemical; conditions: phosphate buffer, pH 7.4, τ1/2 (half-life)
Experimental: To a solution of p-nitrobenzyl 3-[2-(1-pyridinium)ethylthio)]-6α[1-(R)-hydroxyethyl]-7-oxo-1-azabicyclo(3.2.0)hept-2-ene-carboxylate diphenylphosphate (0.16 g, 0.22 mmol) in wet tetrahydrofuran (10mL) was added ether (10mL), potassium phosphate monobasic-sodium hydroxide buffer pH 7.4 (16 mL, 0.05 M) and 10% palladium on charcoal (0.16 g). The resulting mixture was hydrogenated under 40 psi for 1 h at 25° C. The two phases were separated and the organic phase was extracted with water (2×3 mL). The aqeuous solutions were combined, washed with ether (2×10 ml) and poured on top of a column (1.5×6.2 cm) pf μ-bondapak C-18 after the traces of organic solvents have been removed under vacuum. Elution of the column with water gave after lyophylization of the appropriate fractions a yellowish powder 0.062 g (84%), ir (KBr) .nu.max : 3700-3000 (OH), 1755 (C--O of β-lactam), 1630 (pyridinium), 1590 cm^-1 (carboxylate), ^1 Hmr (D2 O): 1.22 (3H, d, J=6.4 Hz, CH3 CHOH), 2.92 (d, J=9.1 Hz, H-4), 2.97 (d, J=9.1 Hz, H-4), 3.20 (dd, J=2.5 Hz, J=6.1 Hz, H-6), 3.44 (t, J=6.0 Hz, CH2 S), 3.93 (dd, J=9.1 Hz, J=2.5 Hz, H-5), 4.82 (t, J=6.0 Hz, CH2 N^+), 8.04 (m, Hm of pyridinium), 8.5 (m, Hp of pyridinium), 8.82 (dd, J=3.2. Hz, J=1.1 Hz, Ho of pyridinium), uv (H2 O) λ max : 259 (ε5800), 296 (ε7030) mμ, .tau.1/2 =13.5 h (measured at a concentration of 10^-4 M in phosphate buffer pH 7.4 at 36.8° C.).

`CC(C[n+]1ccccc1)SC1=C(C(=O)[O-])N2C(=O)[C@H]([C@@H](C)O)[C@H]2C1` (single isomer, unassigned) [Ex. 15 (cmp. "A")] showed an MIC (E. coli A20341-1) of 0.03 µg/mL (≈ 0.0861 µM), an MIC (K. pneumoniae A-9664) of 0.06 µg/mL (≈ 0.172 µM) and an MIC (P. vulgaris A21559) of 0.03 µg/mL (≈ 0.0861 µM). It also gave an MIC (S. marcescens A20019) of 0.06 µg/mL (≈ 0.172 µM), an MIC (P. aeruginosa A21213) of 1 µg/mL (≈ 2.87 µM) and an MIC (B. fragilis A22862) of 0.13 µg/mL (≈ 0.373 µM). The MIC (B. fragilis A22696) was 0.25 µg/mL (≈ 0.718 µM) and the ED50 (P. aeruginosa A9843A [1]) was 3.1 mg/kg.

With `C[C@@H](O)[C@H]1C(=O)N2C(C(=O)[O-])=C(SC3CCCCC3[n+]3ccccc3)C[C@H]12` (single isomer, unassigned) [Ex. 16 (cmp. "A"), (5R,6S) 3-[2-[(R or S)-(1-pyridinium)]-1-(R or S)-cyclohexylthio]-6-[1-(R)-hydroxyethyl]-7-oxo-1-azabicyclo(3.2.0)hept-2-ene-2-carboxylate] the MIC (E. coli A15119) was 0.06 µg/mL (≈ 0.154 µM), the MIC (S. marcescens A20019) was 0.13 µg/mL (≈ 0.335 µM) and the MIC (E. cloacae A-9656) was 0.5 µg/mL (≈ 1.29 µM).

For `C[C@@H](O)[C@H]1C(=O)N2C(C(=O)[O-])=C(SC3CCCCC3[n+]3ccccc3)C[C@H]12` (single isomer, unassigned) [Ex. 16 (cmp. "B"), (5R,6S) 3-[2-[(R or S)-(1-pyridinium)]-1-(R or S)-cyclohexylthio]-6-[1-(R)-hydroxyethyl]-7-oxo-1-azabicyclo(3.2.0)hept-2-ene-2-carboxylate], the MIC (S. pneumoniae A-9585) was 0.002 µg/mL (≈ 0.00515 µM), the MIC (S. pyogenes A-9604) was 0.004 µg/mL (≈ 0.0103 µM) and the MIC (S. aureus A-9537; overnight 37° C.) was 0.013 µg/mL (≈ 0.0335 µM). For the same compound, the MIC [2] was 0.5 µg/mL (≈ 1.29 µM), the MIC (S. faecalis A20688) was 8 µg/mL (≈ 20.6 µM) and the MIC (E. coli A20341-1) was 0.06 µg/mL (≈ 0.154 µM). The MIC (K. pneumoniae A-9664) was 0.13 µg/mL (≈ 0.335 µM), the MIC (K. pneumoniae A20468) was 0.5 µg/mL (≈ 1.29 µM) and the MIC (P. mirabilis A-9900) was 0.13 µg/mL (≈ 0.335 µM). The MIC (P. rettgeri A22424) was 4 µg/mL (≈ 10.3 µM), the MIC (P. aeruginosa A-9843A) was 32 µg/mL (≈ 82.4 µM) and the MIC (E. cloacae A9659) was 0.5 µg/mL (≈ 1.29 µM).

`Cc1cc[n+](CCSC2=C(C(=O)[O-])N3C(=O)[C@H]([C@@H](C)O)[C@H]3C2)cc1` [Example 8, 3-[2-(1-(4-methylpyridinium))ethylthio]-6α-[1(R)-hydroxyethyl]-7-oxo-1-azabicyclo(3.2.0)hept-2-ene-2-carboxylate] gave an MIC (S. pneumoniae A-9585) of 0.03 µg/mL (≈ 0.0861 µM), an MIC (S. pyogenes A-9604) of 0.03 µg/mL (≈ 0.0861 µM) and an MIC (S. aureus A-9537; Staphylococcus aureus, A9537, 50% serum, read-out: MIC) of 0.06 µg/mL (≈ 0.172 µM). The MIC (S. aureus A-9537; Staphylococcus aureus, A9537, overnight 37° C., read-out: MIC) was 0.03 µg/mL (≈ 0.0861 µM), the MIC [3] was 0.06 µg/mL (≈ 0.172 µM) and the MIC [2] was over 63 µg/mL. It also gave an MIC (P. vulgaris A21559) of 0.06 µg/mL (≈ 0.172 µM), an MIC (P. aeruginosa A-9843A) of 8 µg/mL (≈ 23 µM) and an MIC (H. influenzae A-9833) of over 32 µg/mL. For the same compound, the MIC (H. influenzae A21518) was over 32 µg/mL, the MIC (B. fragilis A22862) was 0.06 µg/mL (≈ 0.172 µM) and the MIC (M. morganii A15153) was 0.03 µg/mL (≈ 0.0861 µM). It also gave an ED50 (P. mirabilis A9900) of about 38 mg/kg, an ED50 (S. aureus A9606) of 0.8 mg/kg and an ED50 (P. aeruginosa A9843A [4]) of 0.9 mg/kg. For the same compound, the AUC ([5]; blood) was 4600 ng·h/mL, the Cmax ([5]; blood) was 10600 ng/mL and the half-life ([5]; blood, read-out: T1/2 (blood)) was 8.2 min. The dose excreted ([5]; urine, read-out: Urine Recovery) was 47 ± 7% and the half-life at 100 µM [6] was 768 min.
